# Reference: PubChem BioAssay (NCI)
#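 Method: 48-hour compound exposure of cells in 96-well plates, five concentrations, linear interpolation of endpoints. GI50 = concentration required for 50% inhibition of growth. TGI is the concentration that stops growth completely.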 Activity calls are given as the source filed them. Cut-off read from the data, not from the text of the source: active = GI50 below about 0.43 µM; inactive = the rest.
# What was measured:
# Experiment in all cases: NCI-60 cell line screen, 48 h
# NCI-H522 lung = system: NCI-H522 lung
# M14 melanoma = system: M14 melanoma
# HT29 colon = system: HT29 colon
# T-47D breast = system: T-47D breast
# SF-295 CNS = system: SF-295 CNS
# MALME-3M melanoma = system: MALME-3M melanoma
# MDA-MB-435 = system: MDA-MB-435
# SNB-75 CNS = system: SNB-75 CNS
# SK-MEL-28 melanoma = system: SK-MEL-28 melanoma
# NCI-H226 lung = system: NCI-H226 lung
# NCI-H460 lung = system: NCI-H460 lung
# MCF7 breast = system: MCF7 breast
# SNB-19 CNS = system: SNB-19 CNS
# SN12C renal = system: SN12C renal
# BT-549 breast = system: BT-549 breast
# OVCAR-4 ovarian = system: OVCAR-4 ovarian
# HCC-2998 colon = system: HCC-2998 colon
# UO-31 renal = system: UO-31 renal
# HCT-15 colon = system: HCT-15 colon
# SK-MEL-2 melanoma = system: SK-MEL-2 melanoma
# HOP-62 NSCLC = system: HOP-62 NSCLC
# MOLT-4 leukemia = system: MOLT-4 leukemia
# SK-MEL-5 melanoma = system: SK-MEL-5 melanoma
# HS 578T breast = system: HS 578T breast
# A549 NSCLC = system: A549 NSCLC
# CCRF-CEM leukemia = system: CCRF-CEM leukemia
# IGROV1 ovarian = system: IGROV1 ovarian
# SW-620 colon = system: SW-620 colon
# SF-268 CNS = system: SF-268 CNS
# EKVX NSCLC = system: EKVX NSCLC
# SK-OV-3 ovarian = system: SK-OV-3 ovarian
# RXF 393 renal = system: RXF 393 renal
# UACC-257 melanoma = system: UACC-257 melanoma
# DU-145 prostate = system: DU-145 prostate
# ACHN renal = system: ACHN renal
# OVCAR-5 ovarian = system: OVCAR-5 ovarian
# UACC-62 melanoma = system: UACC-62 melanoma
# NCI/ADR-RES ovarian = system: NCI/ADR-RES ovarian
# COLO 205 colon = system: COLO 205 colon
# CAKI-1 renal = system: CAKI-1 renal
# NCI-H23 lung = system: NCI-H23 lung
# HOP-92 NSCLC = system: HOP-92 NSCLC
# PC-3 prostate = system: PC-3 prostate
# SF-539 CNS = system: SF-539 CNS
# A498 renal = system: A498 renal
# K-562 leukemia = system: K-562 leukemia
# HL-60(TB) leukemia = system: HL-60(TB) leukemia
# RPMI-8226 leukemia = system: RPMI-8226 leukemia
# 786-0 renal = system: 786-0 renal
# TK-10 renal = system: TK-10 renal
# OVCAR-3 ovarian = system: OVCAR-3 ovarian
# U251 CNS = system: U251 CNS
# HCT-116 colon = system: HCT-116 colon
# OVCAR-8 ovarian = system: OVCAR-8 ovarian
# LOX IMVI melanoma = system: LOX IMVI melanoma
# MDA-MB-231 breast = system: MDA-MB-231 breast
compound,measurement,setting,value
CC(C)=CC/C=C(/C)[C@H]1CC[C@]2(C)[C@@H]1CC[C@@H]1[C@@]3(C)CCCNC(C)(C)[C@@H]3CC[C@]12C,GI50,NCI-H522 lung,1980 nM
same,TGI,NCI-H522 lung,4480 nM
same,GI50,M14 melanoma,3460 nM
same,TGI,M14 melanoma,13800 nM
same,GI50,HT29 colon,1710 nM
same,TGI,HT29 colon,3670 nM
same,GI50,T-47D breast,2090 nM
same,TGI,T-47D breast,5030 nM
same,GI50,SF-295 CNS,2000 nM
same,TGI,SF-295 CNS,3830 nM
same,GI50,MALME-3M melanoma,1970 nM
same,TGI,MALME-3M melanoma,4690 nM
same,GI50,MDA-MB-435,1830 nM
same,TGI,MDA-MB-435,3490 nM
same,GI50,SNB-75 CNS,2560 nM
same,TGI,SNB-75 CNS,10800 nM
same,GI50,SK-MEL-28 melanoma,2350 nM
same,TGI,SK-MEL-28 melanoma,5670 nM
same,GI50,NCI-H226 lung,3750 nM
same,TGI,NCI-H226 lung,16800 nM
same,GI50,NCI-H460 lung,2110 nM
same,TGI,NCI-H460 lung,4400 nM
same,GI50,MCF7 breast,2000 nM
same,TGI,MCF7 breast,3920 nM
same,GI50,SNB-19 CNS,3390 nM
same,TGI,SNB-19 CNS,11600 nM
same,GI50,SN12C renal,2300 nM
same,TGI,SN12C renal,5450 nM
same,GI50,BT-549 breast,12400 nM
same,TGI,BT-549 breast,32500 nM
same,GI50,OVCAR-4 ovarian,3330 nM
same,TGI,OVCAR-4 ovarian,11400 nM
same,GI50,HCC-2998 colon,1970 nM
same,TGI,HCC-2998 colon,3560 nM
same,GI50,UO-31 renal,10100 nM
same,TGI,UO-31 renal,23400 nM
same,GI50,HCT-15 colon,1890 nM
same,TGI,HCT-15 colon,3560 nM
same,GI50,SK-MEL-2 melanoma,6060 nM
same,TGI,SK-MEL-2 melanoma,22500 nM
same,GI50,HOP-62 NSCLC,1900 nM
same,TGI,HOP-62 NSCLC,3900 nM
same,GI50,MOLT-4 leukemia,2150 nM
same,TGI,MOLT-4 leukemia,5930 nM
same,GI50,SK-MEL-5 melanoma,1910 nM
same,TGI,SK-MEL-5 melanoma,4300 nM
same,GI50,HS 578T breast,4960 nM
same,TGI,HS 578T breast,22300 nM
same,GI50,A549 NSCLC,2150 nM
same,TGI,A549 NSCLC,4880 nM
same,GI50,CCRF-CEM leukemia,2840 nM
same,TGI,CCRF-CEM leukemia,11300 nM
same,GI50,IGROV1 ovarian,1870 nM
same,TGI,IGROV1 ovarian,3720 nM
same,GI50,SW-620 colon,1820 nM
same,TGI,SW-620 colon,3680 nM
same,GI50,SF-268 CNS,3820 nM
same,TGI,SF-268 CNS,16700 nM
same,GI50,EKVX NSCLC,10600 nM
same,TGI,EKVX NSCLC,28400 nM
same,GI50,SK-OV-3 ovarian,10600 nM
same,TGI,SK-OV-3 ovarian,24800 nM
same,GI50,RXF 393 renal,1720 nM
same,TGI,RXF 393 renal,3310 nM
same,GI50,UACC-257 melanoma,3050 nM
same,TGI,UACC-257 melanoma,11000 nM
same,GI50,DU-145 prostate,2080 nM
same,TGI,DU-145 prostate,4310 nM
same,GI50,ACHN renal,3370 nM
same,TGI,ACHN renal,12400 nM
same,GI50,OVCAR-5 ovarian,3860 nM
same,TGI,OVCAR-5 ovarian,15100 nM
same,GI50,UACC-62 melanoma,5500 nM
same,TGI,UACC-62 melanoma,20100 nM
same,GI50,NCI/ADR-RES ovarian,2280 nM
same,TGI,NCI/ADR-RES ovarian,5070 nM
same,GI50,COLO 205 colon,1800 nM
same,TGI,COLO 205 colon,3530 nM
same,GI50,CAKI-1 renal,1850 nM
same,TGI,CAKI-1 renal,3930 nM
same,GI50,NCI-H23 lung,3170 nM
same,GI50,HOP-92 NSCLC,1500 nM
same,TGI,HOP-92 NSCLC,3580 nM
same,GI50,PC-3 prostate,1620 nM
same,TGI,PC-3 prostate,3590 nM
same,GI50,SF-539 CNS,2850 nM
same,TGI,SF-539 CNS,9130 nM
same,GI50,A498 renal,13800 nM
same,TGI,A498 renal,29300 nM
same,GI50,K-562 leukemia,1790 nM
same,TGI,K-562 leukemia,5300 nM
same,GI50,HL-60(TB) leukemia,1800 nM
same,TGI,HL-60(TB) leukemia,3730 nM
same,GI50,RPMI-8226 leukemia,2120 nM
same,TGI,RPMI-8226 leukemia,4970 nM
same,GI50,786-0 renal,2380 nM
same,TGI,786-0 renal,6290 nM
same,GI50,TK-10 renal,10600 nM
same,TGI,TK-10 renal,27000 nM
same,GI50,OVCAR-3 ovarian,2080 nM
same,TGI,OVCAR-3 ovarian,4280 nM
same,GI50,U251 CNS,1750 nM
same,TGI,U251 CNS,3280 nM
O=[N+]([O-])C(=C(Cl)Cl)/C(Cl)=C(\Cl)Br,outcome,SF-295 CNS,inactive
same,outcome,SNB-19 CNS,inactive
same,outcome,HS 578T breast,inactive
same,outcome,A549 NSCLC,inactive
same,outcome,DU-145 prostate,inactive
same,outcome,OVCAR-5 ovarian,inactive
same,outcome,UACC-62 melanoma,inactive
CCN(CC)CCOc1ccc(-c2nc3cc(Cl)ccc3s2)cc1,GI50,NCI-H522 lung,1800 nM
same,TGI,NCI-H522 lung,3530 nM
same,GI50,M14 melanoma,1730 nM
same,TGI,M14 melanoma,3210 nM
same,GI50,HT29 colon,600 nM
same,TGI,HT29 colon,1840 nM
same,GI50,T-47D breast,1500 nM
same,TGI,T-47D breast,4110 nM
same,GI50,SF-295 CNS,1380 nM
same,TGI,SF-295 CNS,2770 nM
same,GI50,MALME-3M melanoma,1450 nM
same,TGI,MALME-3M melanoma,2800 nM
same,GI50,MDA-MB-435,1650 nM
same,TGI,MDA-MB-435,3180 nM
same,GI50,SNB-75 CNS,1210 nM
same,TGI,SNB-75 CNS,2650 nM
same,GI50,SK-MEL-28 melanoma,1990 nM
same,TGI,SK-MEL-28 melanoma,3940 nM
same,GI50,NCI-H226 lung,2020 nM
same,TGI,NCI-H226 lung,4430 nM
same,GI50,NCI-H460 lung,1590 nM
same,TGI,NCI-H460 lung,2930 nM
same,GI50,MCF7 breast,1450 nM
same,TGI,MCF7 breast,2830 nM
same,GI50,SNB-19 CNS,2260 nM
same,TGI,SNB-19 CNS,5360 nM
same,GI50,HCT-116 colon,1250 nM
same,TGI,HCT-116 colon,2500 nM
same,GI50,SN12C renal,2040 nM
same,TGI,SN12C renal,4790 nM
same,GI50,BT-549 breast,1830 nM
same,TGI,BT-549 breast,5730 nM
same,GI50,OVCAR-4 ovarian,1650 nM
same,TGI,OVCAR-4 ovarian,7210 nM
same,GI50,UO-31 renal,1660 nM
same,TGI,UO-31 renal,3370 nM
same,GI50,HCT-15 colon,1190 nM
same,TGI,HCT-15 colon,2420 nM
same,GI50,SK-MEL-2 melanoma,1890 nM
same,TGI,SK-MEL-2 melanoma,3590 nM
same,GI50,HOP-62 NSCLC,1740 nM
same,TGI,HOP-62 NSCLC,3250 nM
same,GI50,MOLT-4 leukemia,2240 nM
same,TGI,MOLT-4 leukemia,10900 nM
same,GI50,SK-MEL-5 melanoma,1540 nM
same,TGI,SK-MEL-5 melanoma,2880 nM
same,GI50,HS 578T breast,1620 nM
same,TGI,HS 578T breast,3720 nM
same,GI50,A549 NSCLC,1750 nM
same,TGI,A549 NSCLC,3470 nM
same,GI50,CCRF-CEM leukemia,565 nM
same,TGI,CCRF-CEM leukemia,3140 nM
same,GI50,IGROV1 ovarian,1850 nM
same,TGI,IGROV1 ovarian,3610 nM
same,GI50,SW-620 colon,1530 nM
same,TGI,SW-620 colon,2930 nM
same,GI50,OVCAR-8 ovarian,1990 nM
same,TGI,OVCAR-8 ovarian,4020 nM
same,GI50,LOX IMVI melanoma,1390 nM
same,TGI,LOX IMVI melanoma,2680 nM
same,GI50,MDA-MB-231 breast,1470 nM
same,TGI,MDA-MB-231 breast,2920 nM
same,GI50,SK-OV-3 ovarian,1770 nM
same,TGI,SK-OV-3 ovarian,3840 nM
same,GI50,RXF 393 renal,1010 nM
same,TGI,RXF 393 renal,2770 nM
same,GI50,UACC-257 melanoma,1780 nM
same,TGI,UACC-257 melanoma,3620 nM
same,GI50,ACHN renal,1580 nM
same,TGI,ACHN renal,2940 nM
same,GI50,OVCAR-5 ovarian,1600 nM
same,TGI,OVCAR-5 ovarian,3090 nM
same,GI50,UACC-62 melanoma,1780 nM
same,TGI,UACC-62 melanoma,3330 nM
same,GI50,NCI/ADR-RES ovarian,1970 nM
same,TGI,NCI/ADR-RES ovarian,3870 nM
same,GI50,COLO 205 colon,1450 nM
same,TGI,COLO 205 colon,2760 nM
same,GI50,CAKI-1 renal,1470 nM
same,TGI,CAKI-1 renal,2840 nM
same,GI50,NCI-H23 lung,1640 nM
same,TGI,NCI-H23 lung,3320 nM
same,GI50,HOP-92 NSCLC,1220 nM
same,TGI,HOP-92 NSCLC,4200 nM
same,GI50,PC-3 prostate,1740 nM
same,TGI,PC-3 prostate,4610 nM
same,GI50,SF-539 CNS,1600 nM
same,TGI,SF-539 CNS,2940 nM
same,GI50,A498 renal,1660 nM
same,TGI,A498 renal,3830 nM
same,GI50,K-562 leukemia,1260 nM
same,TGI,K-562 leukemia,> 100000 nM
same,GI50,HL-60(TB) leukemia,1560 nM
same,TGI,HL-60(TB) leukemia,5120 nM
same,GI50,RPMI-8226 leukemia,715 nM
same,TGI,RPMI-8226 leukemia,3340 nM
same,GI50,786-0 renal,1680 nM
same,TGI,786-0 renal,3140 nM
same,GI50,TK-10 renal,1310 nM
same,TGI,TK-10 renal,2610 nM
same,GI50,U251 CNS,1580 nM
same,TGI,U251 CNS,2990 nM
